Laboratory results published in patent US8551958B2, “Galactosylated pro-drugs of non-steroidal anti-inflammatories with improved pharmacokinetic characteristics and reduced toxicity of the starting drug” (Stewart Italia Srl, priority 2008, dated 2013).

Key:
[1] = Chemical stability of the pro-drug (phosphate buffer pH 7.4; HCl 0.1 N pH 1), HPLC; format: physicochemical; settings: in the dark; for pH 7.4 T½: phosphate buffer at pH 7.4, 37° C.; for pH 1 T½: solution of HCl 0.1 N (pH 1), 37° C.
Protocol: For the stability study, the solutions of pro-drug were prepared by dissolving an aliquot of Ketogal in a phosphate buffer at pH 7.4, or else in a solution of HCl 0.1 N (pH 1), as regards chemical stability, or else in a plasma specimen, for enzymatic stability. The solutions were kept in the dark, at a temperature of 37° C., for 24 hours. After each hour an aliquot of specimen was taken. In the case of plasma, said aliquot was previously extracted with acetonitrile (1:2), “vortexed” and centrifuged at 3000 r.p.m. for 10 min. The supernatant was taken and used for analysis at HPLC with diode detector. The half-lives for chemical stability and enzymatic stability were calculated by quantizing, in time, the percentage of pro-drug that remained in solution. For the chromatographic separations, a 1090L HPLC (Hewlett-Packard, Palo Alto, USA) was used, coupled to a diode detector HP 1040A. A Phenomenex Luna C18 (250×4.6 mm, 5 μm) column was used. The wavelength used was 313 nm. The mobile phase was constituted by acetonitrile and an aqueous solution of phosphoric acid […] (pH 3) in the ratio of 68:32. The flow was 1 mL/min, with an injection volume of 20 μl. All the reagents and the solvents used were of analytical degree. The distilled and deionized water was purified by means of a Milli Q system (Millipore). The retention times of the compounds were: ketorolac: 6.7 min; Ketogal: 3.8 min. As internal standard tolmetin was used (9.3 min). The straight line of calibration for quantification of the compounds was constructed using standard solutions with concentrations of between 0.1 and 100 μg/ml. The linearity was obtained with a coefficient of regression (R^2) of approximately 0.998.
For the study of the stability, the solutions of pro-drug were prepared by dissolving an aliquot of Flugal in a phosphate buffer at pH 7.4, as regards chemical stability, or else in a plasma specimen, for enzymatic stability. The solutions were kept in the dark, at a temperature of 37° C., for 24 hours. After each hour an aliquot of specimen was taken. In the case of the plasma said amount was previously extracted with acetonitrile (1:2), “vortexed”, and centrifuged at 3000 r.p.m. for 10 min. The supernatant was taken and used for analysis at HPLC with diode detector. The half-lives for the chemical stability and enzymatic stability were calculated by quantizing, in time, the percentage of pro-drug that remained in solution. A 1090L HPLC (Hewlett-Packard, Palo Alto, USA) coupled to a diode detector HP 1040A was used for the chromatographic separations. The column used was a Supelcosil LC-18, 250×4.6 mm, particle size […]. The volume injected was […] and the flow of 1 mL/min. The mobile phase was constituted by a mixture of aqueous CH3CN/H3PO4 1 mM (pH 3) [32:68]. For the quantitative determination reading was made at 250 nm. The retention times of the various compounds involved in the analysis were: for Flugal 6 min and for flurbiprofen 11 min. All the reagents and the solvents used were of analytical degree. The distilled and deionized water was purified by means of a Milli Q system (Millipore). The straight line of calibration for the quantification of the compounds was constructed using standard solutions with concentrations of between 0.1 and 100 μg/ml. Linearity was obtained with a coefficient of regression (R^2) of approximately 0.998. From the results of said analysis (illustrated in Table 3) it emerges that the pro-drug Flugal has a good chemical stability and a good susceptibility to enzymatic hydrolysis.
Chemical stability was assessed also at pH 1.0 in a solution of HCl 0.1N as described.
For the stability study, the solutions of pro-drug were prepared by dissolving an aliquot of Okigal in a phosphate buffer at pH 7.4, or else in a solution of HCl 0.1 N (pH 1), as regards chemical stability, or else in a plasma specimen, for enzymatic stability. The solutions were kept in the dark, at a temperature of 37° C., for 24 hours. […]

[2] = Enzymatic stability in plasma, HPLC; format: in vitro ADME; settings: plasma specimen, 37° C., in the dark; read-out: Plasma T½ (converted)
Protocol: For the stability study, the solutions of pro-drug were prepared by dissolving an aliquot of Ketogal in a phosphate buffer at pH 7.4, or else in a solution of HCl 0.1 N (pH 1), as regards chemical stability, or else in a plasma specimen, for enzymatic stability. The solutions were kept in the dark, at a temperature of 37° C., for 24 hours. After each hour an aliquot of specimen was taken. In the case of plasma, said aliquot was previously extracted with acetonitrile (1:2), “vortexed” and centrifuged at 3000 r.p.m. for 10 min. The supernatant was taken and used for analysis at HPLC with diode detector. The half-lives for chemical stability and enzymatic stability were calculated by quantizing, in time, the percentage of pro-drug that remained in solution. For the chromatographic separations, a 1090L HPLC (Hewlett-Packard, Palo Alto, USA) was used, coupled to a diode detector HP 1040A. A Phenomenex Luna C18 (250×4.6 mm, 5 μm) column was used. The wavelength used was 313 nm. The mobile phase was constituted by acetonitrile and an aqueous solution of phosphoric acid […] (pH 3) in the ratio of 68:32. The flow was 1 mL/min, with an injection volume of 20 μl. All the reagents and the solvents used were of analytical degree. The distilled and deionized water was purified by means of a Milli Q system (Millipore). […] The straight line of calibration for quantification of the compounds was constructed using standard solutions with concentrations of between 0.1 and 100 μg/ml. […]
For the study of the stability, the solutions of pro-drug were prepared by dissolving an aliquot of Flugal in a phosphate buffer at pH 7.4, as regards chemical stability, or else in a plasma specimen, for enzymatic stability. […] The half-lives for the chemical stability and enzymatic stability were calculated by quantizing, in time, the percentage of pro-drug that remained in solution. […] For the quantitative determination reading was made at 250 nm. […] The straight line of calibration for the quantification of the compounds was constructed using standard solutions with concentrations of between 0.1 and 100 μg/ml. […]

[3] = system: mice; test: Ulcerogenicity studies, flurbiprofen and flugal (NSAID-induced gastric damage in mice); format: in vivo; settings: oral, after 4 h; for gastric lesion score / n. of ulcers: flurbiprofen 10 mg/kg, flugal 16.6 mg/kg (table); for n. of ulcers: fasted mice
Protocol: NSAID-induced gastric damage in mice was evaluated following the procedure described by Chan et al. (1995). […] After 4 h of treatment, mice were euthanized and the stomach was excised along its greater curvature and rinsed with normal saline. The mucosa was then examined by means of a magnifying glass for the presence of irritation or frank hemorrhagic lesions (ulcers). Irritation was assigned a score of 1, and ulcerations were scored according to their length (a score of 5 for lesions with a length between 1 and 3 mm; a score of 10 for lesions greater than 3 mm). The sum of total scores was used for comparison.

[4] = system: mouse carrageenan paw oedema; test: Carrageenan oedema test; format: in vivo, mice; settings: for Carrageenan-induced oedema, first phase (0-6 h): pro-drug 16.3 mg/kg oral; for Oedema formation after parent drug: 10 mg/kg oral
Protocol: Anti-inflammatory activity was tested by means of the carrageenan oedema test. The mice were divided into groups of six. The initial volumes of the leg of all the animals were measured using a plethysmometer. The oedema is induced in the leg by means of sub-plantar injection of 50 μl of saline solution containing 1% of carrageenan. The volume of the leg was measured at different time intervals. Said experimental model consists of two phases: a first, acute, phase lasting 6 hours and a second, chronic, phase, up to 72 hours.
The anti-inflammatory activity of the physical mixture of ketorolac and galactose was evaluated with the carrageenan induced mice hind paw edema assay, as described for ketogal. […]
The carrageenan induced mice hind paw oedema assay described by D'Agostino et al. (2007) was used to evaluate the acute anti-inflammatory activity of the conjugate. Mice were divided into control and test groups of six animals each. Initial paw volumes of all animals were measured using a plethysmometer apparatus (Ugo Basile, Milan, Italy) before treatment. Paw oedema was induced by a subplantar injection of 50 μL of saline containing 1% λ-carrageenan into the right hind paw. […] free acid and ketogal were orally administrated 1 h before carrageenan challenge. Paw volume was measured at different time intervals by plethysmometer. The increase in paw volume was evaluated as the difference between the paw volume measured at each time point and the basal paw volume measured immediately before carrageenan injection.

[5] = system: mouse carrageenan paw oedema; test: Carrageenan oedema test; format: in vivo, mice; settings: pro-drug 16.3 mg/kg oral, 1 h before carrageenan
[6] = system: male Swiss mice; test: Ulcerogenicity studies, ketorolac and Ketogal (gastric lesions); format: in vivo; settings: oral, ketorolac 10.0 mg/kg, Ketogal 16.3 mg/kg, after 4 hours
Protocol: The gastric lesions were evaluated in male Swiss mice. To the fasted animals (16-18 h) were administered, by oral route, ketorolac (10 mg/kg), Ketogal (16.3 mg/kg), or the vehicle. After 4 hours, the mice were sacrificed and the stomach removed, cut along the major curvature, washed with physiological solution, and the mucous was examined for evaluation of the presence of petechias and/or gastric lesions. A “score” of 1 was assigned to the petechias, and a “score” based on the diameter (a “score” of 5 for lesions of a diameter of less than 1 mm; a “score” of 10 for lesions with a diameter of more than 1 mm) was, instead, assigned to the lesions.

[7] = system: writhing induced by acetic acid; test: Writhing test induced by acetic acid; format: in vivo, mice; settings: 60 min prior to acetic acid
Protocol: The analgesic activity was studied using the “writhing test” using acetic acid and using magnesium sulphate. To the mice there was administered by intraperitoneal route 1 mL of solution at 1% of acetic acid, and the number of writhing events was evaluated for 20 min, after 5 min from administration of the solution of acetic acid. Writhing is defined as a contraction of the abdominal muscles accompanied by elongation of the body and of the rear legs. Ketorolac and Ketogal were administered by oral route 60 min prior to administration of the solution of acetic acid. The analgesic effect is expressed in number of writhing events as compared to the control.

[8] = system: writhing induced by magnesium sulphate; test: Writhing induced by magnesium sulphate (visceral pain); format: in vivo, mouse; settings: ketorolac 0.01 to 10 mg/kg, Ketogal in equimolar dose; 1 hour before magnesium sulphate 120 mg/kg
Protocol: In order to determine whether ketorolac and Ketogal are able to inhibit visceral pain, the effects of these compounds on “writhing” induced by magnesium sulphate were tested. Magnesium sulphate induces a reversible response when injected by intraperitoneal route in the mouse. The administration of 120 mg/kg of magnesium sulphate induces an average of 6±0.9 episodes of “writhing” in the mouse (n=6).

[9] = system: male Swiss mice; test: Chronic and sub-chronic experiments: liver, kidney and stomach examination; format: in vivo; settings: ketorolac 10 mg/Kg, ketogal 16.3 mg/Kg, oral
Protocol: (§1) Animals were sacrificed and then liver, stomach and kidney were collected in glass tubes and analysed histologically and biochemically.
Liver samples were fixed in 10% buffered formalin and embedded in paraffin, sliced, and stained with hematoxylin & eosin (H&E) for assessment of liver pathology. […] To confirm histological data, western blot analysis for TNF-alpha, IL-6 and malonyldialdehyde assay were then performed in liver lysates.

[10] = system: COX-1; test: Western blot, stomach, COX-1 protein expression; format: in vivo, mice; settings: ketorolac 10 mg/Kg, ketogal 16.3 mg/Kg, oral, 3, 5 and 7 days; versus control stomachs
Description: as §1

[11] = system: PGE synthase; test: Western blot, stomach, PGE synthase protein expression; format: in vivo, mice; settings: ketorolac 10 mg/Kg, ketogal 16.3 mg/Kg, oral, 3, 5 and 7 days
Description: as §1

[12] = system: PPAR-gamma; test: Western blot, stomach, PPAR-gamma protein expression; format: in vivo, mice; settings: ketorolac 10 mg/Kg, ketogal 16.3 mg/Kg, oral, 3, 5 and 7 days
Description: as §1

CC(C(=O)OCC1O[C@H](O)C(O)[C@@H](O)[C@H]1O)c1ccc(-c2ccccc2)c(F)c1 (stereo partly drawn) [Flugal, flurbiprofen-D-galactos-6′-yl ester]
pH 7.4 T½ [1]: >8 hours | pH 1 T½ [1]: >8 hours | half-life [2]: 1 h | Ulcerogenic activity (in words) ([3]; flugal 16.3 mg/kg): caused only irritation without ulceration | gastric lesion score [3]: 0 | n. of ulcers [3]: 1 ± 1 | Carrageenan-induced oedema, first phase (0-6 h) ([4]; 1 h before carrageenan): did not modify carrageenan-induced oedema | Carrageenan-induced oedema, second phase (24-96 h) [5]: significant anti-inflammatory effect

CC(C(=O)O)c1cccc(C(=O)c2ccccc2)c1 (centres unmarked) [Ketoprofen, ketoprofen, reference compound]
Oedema formation after parent drug ([4]; 1 h before carrageenan): significantly inhibited oedema formation until 48 h

CC(C(=O)OCC1O[C@H](O)C(O)C(O)[C@H]1O)c1cccc(C(=O)c2ccccc2)c1 (stereo partly drawn) [Okigal, Ketoprofen-D-galactos-6′-yl ester]
pH 7.4 T½ [1]: >8 hours | pH 1 T½ [1]: >8 hours | half-life [2]: 4 h | Carrageenan-induced oedema, first phase (0-6 h) ([4]; 1 h before carrageenan): slightly modify carrageenan-induced oedema | Carrageenan-induced oedema, second phase (24-96 h) [5]: significant anti-inflammatory effect

CC(C(=O)O)c1ccc(-c2ccccc2)c(F)c1 (centres unmarked) [flurbiprofen, reference compound]
gastric lesion score [3]: 2 | n. of ulcers [3]: 3 ± 1.5 | Oedema formation after parent drug ([4]; 1 h before carrageenan): significantly inhibited oedema formation until 48 h

O=C[C@H](O)[C@@H](O)[C@@H](O)[C@H](O)CO [galactose, reference compound]
Anti-inflammatory activity of galactose alone ([4]; galactose 16.3 mg/kg oral, 1 h before carrageenan): no anti-inflammatory activity

O=C(c1ccccc1)c1ccc2n1CC[C@@H]2C(=O)O [ketorolac, reference compound]
Degree of ulcerogenicity ([6]; score 1 petechias, 5 or 10 lesions): 10 | Number of ulcers ([6]; fasted mice): 4 ± 0.4 | Dosages with significant analgesic effect (p<0.01) ([7]; ketorolac by oral route): significant at the dosages of 1 and 10 mg/kg | Analgesic effect (number of writhing events compared to control) ([7]; oral, ketorolac 0.01-10 mg/kg, Ketogal 0.0163-16.3 mg/kg): dose-dependent analgesic effect | Inhibition of writhing induced by magnesium sulphate [8]: able to inhibit this response in a dose-dependent way | Formation of oedema, first phase, lowest dose ([4]; ketorolac 0.1 mg/kg oral, first phase): had no effect | Kidney histology ([9]; after 3, 5 and 7 days): normal kidney histology | Stomach samples, ulcerogenicity ([9]; for 3 days): high ulcerogenicity degree | Gastric COX-1 protein expression [10]: significantly inhibited | Gastric PGE synthase protein expression [11]: significantly reduced | Gastric PPAR-gamma protein expression [12]: significantly reduced
